Data as given in DBAASP.
Values after ≈ are worked out from the molar mass of the structure shown. Each block holds one molecule with its values, some of them ahead of it.

How the values were obtained:
Experiment in all cases: ≥ marks a high value that may be exact or a test limit, other limits are often not marked, values filed in µg/mL are converted to µM
[1] = system: Escherichia coli NEB5alpha
[2] = system: Candida albicans ATCC 200955
[3] = system: Enterococcus faecium ATCC 700221
[4] = system: Pseudomonas aeruginosa ATCC 27853
[5] = system: Staphylococcus aureus ATCC 25923
[6] = system: Staphylococcus aureus ATCC 33591
[7] = system: Bacillus subtilis ATCC 6051
Bacillus subtilis = system: Bacillus subtilis
Escherichia coli = system: Escherichia coli
Proteus vulgaris = system: Proteus vulgaris
Pseudomonas aeruginosa = system: Pseudomonas aeruginosa
Salmonella typhimurium = system: Salmonella typhimurium
[8] = system: Staphylococcus epidermidis
Streptococcus pyogenes = system: Streptococcus pyogenes
Escherichia coli BL21 = system: Escherichia coli BL21
[9] = system: Pseudomonas aeruginosa PAO1
[10] = system: Streptococcus pyogenes M1T1 5448
[11] = system: Acinetobacter calcoaceticus
Bacillus cereus = system: Bacillus cereus
Bacillus pumilus = system: Bacillus pumilus
[12] = system: Candida albicans ATCC 2002
[13] = system: Escherichia coli ATCC 25922
Shigella dysenteriae = system: Shigella dysenteriae
[14] = system: Staphylococcus aureus ATCC 2592
Bacillus subtilis DELTA = system: Bacillus subtilis DELTA
Candida parapsilosis = system: Candida parapsilosis
[15] = system: Escherichia coli DH5alpha
[16] = system: Zymomonas mobilis ATCC 10988
[17] = system: Bacillus subtilis IFO 3336
[18] = system: Escherichia coli IFO 3301

MIC [1]: ≥ 1000 µM
SMILES: CC[C@H](C)[C@H](NC(=O)[C@H](C)NC(=O)[C@H](C)NC(=O)[C@H](CCCN=C(N)N)NC(=O)[C@H](CC(=O)O)NC(=O)[C@H](CC(N)=O)NC(=O)[C@@H](NC(=O)[C@@H](N)CCCCN)[C@@H](C)O)C(=O)NCC(=O)N[C@@H](CCCCN)C(=O)N[C@@H](CC(C)C)C(=O)N[C@H](C(=O)NCC(=O)N[C@@H](C)C(=O)N[C@H](C(=O)N[C@@H](CO)C(=O)N[C@@H](CO)C(=O)N[C@@H](CC(C)C)C(=O)O)[C@@H](C)O)C(C)C [KTNDRAAIGKLVGATSSL]

MIC [2]: 28.4 µM (≈ 33.6 µg/mL)
MIC [3]: 9.5 µM (≈ 11.2 µg/mL)
MIC [4]: 28.4 µM (≈ 33.6 µg/mL)
MIC [5]: 1.69 µM (≈ 2 µg/mL)
MIC [6]: 9.5 µM (≈ 11.2 µg/mL)
SMILES: CC[C@H](C)[C@H](NC(=O)[C@H](Cc1c[nH]c2ccccc12)NC(=O)[C@H](CCCCN)NC(=O)[C@H](CC(C)C)NC(=O)[C@H](CC(C)C)NC(=O)CN)C(=O)N[C@@H](CCCCN)C(=O)N[C@H](C(=O)N[C@@H](CC(C)C)C(=O)N[C@@H](CC(C)C)C(N)=O)[C@@H](C)O [GLLKWIKTLL]

MIC [7]: ≥ 1000 µM
MIC [1]: ≥ 1000 µM
SMILES: CC[C@H](C)[C@H](NC(=O)[C@H](C)NC(=O)CNC(=O)[C@H](CCCCN)NC(=O)[C@H](CCC(=O)O)NC(=O)[C@H](CCC(=O)O)NC(=O)[C@H](CC(=O)O)NC(=O)[C@H](CCC(=O)O)NC(=O)[C@H](CC(N)=O)NC(=O)[C@H](CCCN=C(N)N)NC(=O)CNC(=O)[C@H](CCC(N)=O)NC(=O)[C@H](CC(C)C)NC(=O)[C@@H](N)CCCCN)C(=O)N[C@H](C(=O)N[C@@H](CCCCN)C(=O)N[C@H](C(=O)N[C@@H](CCCCN)C(=O)O)C(C)C)C(C)C [KLQGRNEDEEKGAIVKVK]

MIC (Bacillus subtilis): ≥ 64 µM
MIC (Escherichia coli): 64 µM (≈ 210 µg/mL)
MIC (Proteus vulgaris): ≥ 64 µM
MIC (Pseudomonas aeruginosa): 64 µM (≈ 210 µg/mL)
MIC (Salmonella typhimurium): 2 µM (≈ 6.55 µg/mL)
MIC [8]: ≥ 64 µM
MIC (Streptococcus pyogenes): ≥ 64 µM
SMILES: CC[C@H](C)[C@H](NC(=O)[C@H](Cc1ccc(O)cc1)NC(=O)[C@@H](NC(=O)[C@@H]1CCCN1C(=O)[C@H](CCCN=C(N)N)NC(=O)[C@H](CC(N)=O)NC(=O)[C@H](CC(N)=O)NC(=O)CNC(=O)[C@@H]1CCCN1C(=O)[C@H](CCC(=O)O)NC(=O)[C@H](C)NC(=O)[C@H](CCC(=O)O)NC(=O)[C@@H]1CCCN1C(=O)[C@H](CCC(=O)O)NC(=O)[C@H](C)NC(=O)[C@H](CCC(=O)O)NC(=O)[C@H](CCCN=C(N)N)NC(=O)[C@@H](N)CCCN=C(N)N)C(C)C)C(=O)N1CCC[C@H]1C(=O)N[C@@H](CCC(N)=O)C(=O)N1CCC[C@H]1C(=O)N[C@@H](CCCN=C(N)N)C(=O)N1CCC[C@H]1C(=O)N1CCC[C@H]1C(=O)N[C@@H](Cc1cnc[nH]1)C(=O)N1CCC[C@H]1C(=O)N[C@@H](CCCN=C(N)N)C(=O)N[C@@H](CC(C)C)C(=O)O [RREAEPEAEPGNNRPVYIPQPRPPHPRL]

MIC (Escherichia coli BL21): 4 µM (≈ 12.2 µg/mL)
MIC [9]: 16 µM (≈ 48.7 µg/mL)
MIC [10]: 0.25 µM (≈ 0.761 µg/mL)
SMILES: CC[C@H](C)[C@H](NC(=O)[C@H](CCCCN)NC(=O)[C@H](CCCCN)NC(=O)[C@H](CCCCN)NC(=O)[C@H](CC(C)C)NC(=O)[C@H](CCCN=C(N)N)NC(=O)[C@H](CCC(N)=O)NC(=O)[C@H](Cc1ccccc1)NC(=O)[C@@H](NC(=O)[C@@H](NC(=O)[C@H](CCC(=O)O)NC(=O)[C@H](CCCCN)NC(=O)CNC(=O)[C@H](C)N)[C@@H](C)O)[C@@H](C)CC)C(=O)N[C@@H](CCC(N)=O)C(=O)N[C@@H](CCC(=O)O)C(=O)N[C@@H](CCCCN)C(=O)NCC(=O)N[C@@H](CCCCN)C(=O)N[C@@H](CCCN=C(N)N)C(=O)N[C@@H](C)C(=O)N[C@H](C(=O)N[C@H](C(=O)N[C@@H](Cc1c[nH]c2ccccc12)C(=O)N[C@@H](Cc1c[nH]c2ccccc12)C(=O)O)[C@@H](C)CC)[C@@H](C)O [AGKETIFQRLKKKIQEKGKRATIWW]

MIC [11]: 16.8 µM (≈ 30 µg/mL)
MIC (Bacillus cereus): 16.8 µM (≈ 30 µg/mL)
MIC (Bacillus pumilus): 1.4 µM (≈ 2.5 µg/mL)
MIC [12]: 0.702 µM (≈ 1.25 µg/mL)
MIC [13]: 2.81 µM (≈ 5 µg/mL)
MIC (Pseudomonas aeruginosa): 4.21 µM (≈ 7.5 µg/mL)
MIC (Shigella dysenteriae): 5.61 µM (≈ 9.99 µg/mL)
MIC [14]: 1.4 µM (≈ 2.5 µg/mL)
SMILES: CC[C@H](C)[C@H](NC(=O)[C@@H]1CCCN1C(=O)[C@H](Cc1ccccc1)NC(=O)[C@@H](N)Cc1ccccc1)C(=O)N[C@H](C(=O)NCC(=O)N[C@@H](CCCCN)C(=O)N[C@@H](CC(C)C)C(=O)N[C@@H](CC(C)C)C(=O)N[C@@H](Cc1ccccc1)C(=O)NCC(=O)N[C@@H](CC(C)C)C(=O)N[C@@H](Cc1ccccc1)C(=O)NCC(=O)N[C@@H](CC(C)C)C(=O)N[C@@H](CC(C)C)C(N)=O)C(C)C [FFPIVGKLLFGLFGLL]

MIC (Bacillus subtilis DELTA): ≥ 167 µM
MIC (Candida parapsilosis): 8.33 µM (≈ 9.99 µg/mL)
MIC [15]: ≥ 167 µM
MIC [9]: 2.5 µM (≈ 3 µg/mL)
MIC [16]: 4.16 µM (≈ 5 µg/mL)
SMILES: CC[C@H](C)[C@H](NC(=O)[C@H](Cc1ccccc1)NC(=O)[C@H](CCCCN)NC(=O)[C@H](CC(C)C)NC(=O)[C@H](CC(C)C)NC(=O)CN)C(=O)N[C@@H](CCCCN)C(=O)N[C@@H](CCCN=C(N)N)C(=O)N[C@@H](CC(C)C)C(=O)N[C@@H](CC(C)C)C(N)=O [GLLKFIKRLL]

MIC (Bacillus subtilis DELTA): 8.57 µM (≈ 9.99 µg/mL)
MIC (Candida parapsilosis): 12.9 µM (≈ 15 µg/mL)
MIC [15]: ≥ 171 µM
MIC [9]: 2.57 µM (≈ 3 µg/mL)
MIC [16]: 4.29 µM (≈ 5 µg/mL)
SMILES: CC[C@H](C)[C@H](NC(=O)[C@H](CCCCN)NC(=O)[C@H](CC(C)C)NC(=O)[C@H](CC(C)C)NC(=O)CN)C(=O)N[C@H](C(=O)N[C@@H](CCCCN)C(=O)N[C@@H](CCCN=C(N)N)C(=O)N[C@@H](CC(C)C)C(=O)N[C@@H](CC(C)C)C(N)=O)[C@@H](C)CC [GLLKIIKRLL]

MIC [17]: ≥ 827 µM
MIC [18]: ≥ 827 µM
SMILES: NC(N)=NCCC[C@H](NC(=O)[C@H](Cc1cnc[nH]1)NC(=O)[C@@H](N)CCCN=C(N)N)C(=O)N[C@@H](Cc1cnc[nH]1)C(=O)O [RHRH]

MIC [11]: ≥ 37.5 µM
MIC (Bacillus cereus): ≥ 46.8 µM
MIC (Bacillus pumilus): 4.68 µM (≈ 7.5 µg/mL)
MIC [12]: 1.56 µM (≈ 2.5 µg/mL)
MIC [13]: 3.12 µM (≈ 5 µg/mL)
MIC (Pseudomonas aeruginosa): 1.56 µM (≈ 2.5 µg/mL)
MIC (Shigella dysenteriae): 12.5 µM (≈ 20 µg/mL)
MIC [14]: 1.56 µM (≈ 2.5 µg/mL)
SMILES: CC[C@H](C)[C@H](NC(=O)[C@@H]1CCCN1C(=O)[C@H](CC(C)C)NC(=O)[C@@H](N)Cc1ccccc1)C(=O)N[C@H](C(=O)NCC(=O)N[C@@H](CCCCN)C(=O)N[C@@H](CC(C)C)C(=O)N[C@@H](CC(C)C)C(=O)N[C@@H](CO)C(=O)NCC(=O)N[C@@H](CC(C)C)C(=O)N[C@@H](CO)C(=O)NCC(=O)N[C@@H](CC(C)C)C(=O)N[C@@H](CO)C(N)=O)C(C)C [FLPIVGKLLSGLSGLS]

MIC [17]: 5.62 µM (≈ 10 µg/mL)
MIC [18]: 5.62 µM (≈ 10 µg/mL)
SMILES: NC(N)=NCCC[C@H](NC(=O)[C@H](Cc1cnc[nH]1)NC(=O)[C@H](CCCN=C(N)N)NC(=O)[C@H](Cc1cnc[nH]1)NC(=O)[C@H](CCCN=C(N)N)NC(=O)[C@H](Cc1cnc[nH]1)NC(=O)[C@H](CCCN=C(N)N)NC(=O)[C@H](Cc1cnc[nH]1)NC(=O)[C@H](CCCN=C(N)N)NC(=O)[C@H](Cc1cnc[nH]1)NC(=O)[C@@H](N)CCCN=C(N)N)C(=O)N[C@@H](Cc1cnc[nH]1)C(=O)O [RHRHRHRHRHRH]
